Source: patent US20260242418A1, “CYCLIC PEPTIDES WITH ANTIBACTERIAL ACTIVITY AGAINST MULTIDRUG RESISTANT (MDR) PATHOGENS” (priority 2022, published 2026)
In brackets after ≈: the same amount, converted by molar mass.

Assays:
in vitro = assay type: cell-based, human; details: human, haemolysis % relative to 1% TX-100 at 64 ug/mL PLP-3
Description: (§1) A 50% haematocrit solution (1:1 PBS 1×, P5493, 1 L, Sigma) was obtained from a commercially available human blood sample by performing 3 consecutive washes with PBS 1× and centrifuging at 2600 rpm for 10 minutes between washes. A final 4% erythrocyte solution was prepared with PBS 1× and chilled on ice until used.
(§2) Colistin and SEQ ID NO: 4 (PLP-3) stocks were prepared at 256 μg/mL in MHB and left at 4 C until used.
(§3) 96-well, round bottom plates were filled with 50 μL PBS 1× but for the haemolysis controls, which were left empty. 50 μL of each antimicrobial were added to the first column of each plate and serial dilution was performed. Then 50 μL of 4% erythrocyte solution were added to all wells of the plate and gently resuspended. Positive control consisted in PBS 1× and erythrocytes while haemolysis control was settled at 1% Triton™ X-100 (TX-100, 9002-93-1, 100 mL, Sigma) and erythrocytes.
(§4) Plates were incubated for 4 h at 37° C. and then centrifuged at 1500 rpm 5 min. […] An EPOCH™ spectrophotometer was used to read the plates at 450 nm.
(§5) Haemolysis assays of human erythrocytes were done using 1% TX-100 as a control for total haemolysis and absorbance values of PLP-3 were represented in relation to total haemolysis (TX-100 values).

human erythrocytes = test: in vitro; assay type: cell-based; details: red cells of human
Description: as §1, §2, §3, §4, §5

[1] = test system: A. baumannii 8 clinical strain; test: Time-kill curves; assay type: cell-based, Acinetobacter baumannii
Description: (§6) Time-kill curves (TKC) determine the in vitro antimicrobial activity of a compound, monitoring the bacterial growth over a certain period of time.
(§7) This assay was performed for two Acinetobacter baumannii strains (a clinical strain and ATCC 19606 strain) and one Pseudomonas aeruginosa ATCC 27853 strain, monitoring its growth during 24 hours at different PLP-3 (SEQ ID NO: 4) concentrations: MIC, 2×MIC, 4×MIC, 8×MIC. Moreover, in each TKC assay a negative and a positive growth control was stablished.
(§8) In different 13MI tubes, a certain concentration of PLP-3 peptide, Mueller-Hinton Broth (MHB, 1214, Condalab) and a fixed inoculum concentration were added. The final inoculum concentration in each tube was […]. Tubes were incubated at 37° C. at 180 rpm during 24 hours. Aliquots of the liquid culture were taken at different times: 0 h, 10 minutes, 30 minutes, 1 h, 2 h, 4 h, 8 h and 24 h. For each taken aliquot, serial dilutions with Phosphate Saline Buffer 1× (PBS 1×) were made and streaked in Luria-Bertani Agar (LB, 1083, Condalab). LB Agar plates were incubated at 37° C. during 18-22 hours. Grown colonies in LB Agar were counted in order to quantify the inoculum in each time period.
(§9) Three biological replicates were performed for each strain, and the mean and standard deviation was determined each time.

P. aeruginosa ATCC 27853 = test: Time-kill curves; assay type: cell-based, Pseudomonas aeruginosa
Description: as §6, §7, §8, §9

[2] = time-kill curves over 24 hours, MIC to 8xMIC

CC(C)C[C@@H]1NC(=O)[C@H](CCCNC(=N)N)NC(=O)[C@H](CCCNC(=N)N)NC(=O)[C@H](CCCNC(=N)N)NC(=O)[C@H]2CCCN2C(=O)[C@H](CCCNC(=N)N)NC(=O)[C@H](CCCNC(=N)N)NC(=O)[C@H](C(C)C)NC(=O)[C@@H]2CSSC[C@H](NC1=O)C(=O)N[C@@H](Cc1ccccc1)C(=O)N[C@@H](C(C)C)C(=O)N[C@@H](CCCNC(=N)N)C(=O)N1CCC[C@@H]1C(=O)N[C@@H](CCCCN)C(=O)N[C@@H](Cc1ccccc1)C(=O)N[C@@H](C(C)C)C(=O)N[C@@H](C(C)C)C(=O)N2 [PLP-3, cyclo[RRRLCFVRPKFVVCVRRP]]
hemolysis at 4 h, 64 ug/mL (in vitro): 62.6% | IC50 from the haemolysis curve (human erythrocytes): 48.53 µg/mL (≈ 21.4 µM) | log(CFU/mL) Mean ([1]; 2xMIC (4 μg/mL), 0.00 h): 5.60 log(CFU/mL) | log(CFU/mL) Mean ([1]; 2xMIC (4 μg/mL), 0.17 h): 5.56 log(CFU/mL) | log(CFU/mL) Mean ([1]; 2xMIC (4 μg/mL), 0.50 h): 4.92 log(CFU/mL) | log(CFU/mL) Mean ([1]; 2xMIC (4 μg/mL), 1.00 h): 4.20 log(CFU/mL) | log(CFU/mL) Mean ([1]; 2xMIC (4 μg/mL), 2.00 h): 2.74 log(CFU/mL) | log(CFU/mL) Mean ([1]; 2xMIC (4 μg/mL), 4.00 h): 1.89 log(CFU/mL) | log(CFU/mL) Mean ([1]; 2xMIC (4 μg/mL), 8.00 h): 1.05 log(CFU/mL) | log(CFU/mL) Mean ([1]; 2xMIC (4 μg/mL), 24.00 h): 1.49 log(CFU/mL) | log(CFU/mL) Mean ([1]; 4xMIC (8 μg/mL), 0.00 h): 5.60 log(CFU/mL) | log(CFU/mL) Mean ([1]; 4xMIC (8 μg/mL), 0.17 h): 5.30 log(CFU/mL) | log(CFU/mL) Mean ([1]; 4xMIC (8 μg/mL), 0.50 h): 4.11 log(CFU/mL) | log(CFU/mL) Mean ([1]; 4xMIC (8 μg/mL), 1.00 h): 2.74 log(CFU/mL) | log(CFU/mL) Mean ([1]; 4xMIC (8 μg/mL), 2.00 h): 0.00 log(CFU/mL) | log(CFU/mL) Mean ([1]; 4xMIC (8 μg/mL), 4.00 h): 0.00 log(CFU/mL) | log(CFU/mL) Mean ([1]; 4xMIC (8 μg/mL), 8.00 h): 0.00 log(CFU/mL) | log(CFU/mL) Mean ([1]; 4xMIC (8 μg/mL), 24.00 h): 0.00 log(CFU/mL) | log(CFU/mL) Mean ([1]; 8xMIC (16 μg/mL), 0.00 h): 5.60 log(CFU/mL) | log(CFU/mL) Mean ([1]; 8xMIC (16 μg/mL), 0.17 h): 4.45 log(CFU/mL) | log(CFU/mL) Mean ([1]; 8xMIC (16 μg/mL), 0.50 h): 0.00 log(CFU/mL) | log(CFU/mL) Mean ([1]; 8xMIC (16 μg/mL), 1.00 h): 0.00 log(CFU/mL) | log(CFU/mL) Mean ([1]; 8xMIC (16 μg/mL), 2.00 h): 0.00 log(CFU/mL) | log(CFU/mL) Mean ([1]; 8xMIC (16 μg/mL), 4.00 h): 0.00 log(CFU/mL) | log(CFU/mL) Mean ([1]; 8xMIC (16 μg/mL), 8.00 h): 0.00 log(CFU/mL) | log(CFU/mL) Mean ([1]; 8xMIC (16 μg/mL), 24.00 h): 0.00 log(CFU/mL) | log(CFU/mL) Mean ([1]; MIC (2 μg/mL), 0.00 h): 5.60 log(CFU/mL) | log(CFU/mL) Mean ([1]; MIC (2 μg/mL), 0.17 h): 5.63 log(CFU/mL) | log(CFU/mL) Mean ([1]; MIC (2 μg/mL), 0.50 h): 5.18 log(CFU/mL) | log(CFU/mL) Mean ([1]; MIC (2 μg/mL), 1.00 h): 4.55 log(CFU/mL) | log(CFU/mL) Mean ([1]; MIC (2 μg/mL), 2.00 h): 3.56 log(CFU/mL) | log(CFU/mL) Mean ([1]; MIC (2 μg/mL), 4.00 h): 2.54 log(CFU/mL) | log(CFU/mL) Mean ([1]; MIC (2 μg/mL), 8.00 h): 2.90 log(CFU/mL) | log(CFU/mL) Mean ([1]; MIC (2 μg/mL), 24.00 h): 4.67 log(CFU/mL) | bactericidal or bacteriostatic activity [1, 2]: bactericidal effect | log(CFU/mL) Mean (P. aeruginosa ATCC 27853; 2xMIC (16 μg/mL), 0.00 h): 5.52 log(CFU/mL) | log(CFU/mL) Mean (P. aeruginosa ATCC 27853; 2xMIC (16 μg/mL), 0.17 h): 4.48 log(CFU/mL) | log(CFU/mL) Mean (P. aeruginosa ATCC 27853; 2xMIC (16 μg/mL), 0.50 h): 3.75 log(CFU/mL) | log(CFU/mL) Mean (P. aeruginosa ATCC 27853; 2xMIC (16 μg/mL), 1.00 h): 2.97 log(CFU/mL) | log(CFU/mL) Mean (P. aeruginosa ATCC 27853; 2xMIC (16 μg/mL), 2.00 h): 0.88 log(CFU/mL) | log(CFU/mL) Mean (P. aeruginosa ATCC 27853; 2xMIC (16 μg/mL), 4.00 h): 0.00 log(CFU/mL) | log(CFU/mL) Mean (P. aeruginosa ATCC 27853; 2xMIC (16 μg/mL), 8.00 h): 0.00 log(CFU/mL) | log(CFU/mL) Mean (P. aeruginosa ATCC 27853; 2xMIC (16 μg/mL), 24.00 h): 0.00 log(CFU/mL) | log(CFU/mL) Mean (P. aeruginosa ATCC 27853; 4xMIC (32 μg/mL), 0.00 h): 5.52 log(CFU/mL) | log(CFU/mL) Mean (P. aeruginosa ATCC 27853; 4xMIC (32 μg/mL), 0.17 h): 4.32 log(CFU/mL) | log(CFU/mL) Mean (P. aeruginosa ATCC 27853; 4xMIC (32 μg/mL), 0.50 h): 3.46 log(CFU/mL) | log(CFU/mL) Mean (P. aeruginosa ATCC 27853; 4xMIC (32 μg/mL), 1.00 h): 1.23 log(CFU/mL) | log(CFU/mL) Mean (P. aeruginosa ATCC 27853; 4xMIC (32 μg/mL), 2.00 h): 0.57 log(CFU/mL) | log(CFU/mL) Mean (P. aeruginosa ATCC 27853; 4xMIC (32 μg/mL), 4.00 h): 0.00 log(CFU/mL) | log(CFU/mL) Mean (P. aeruginosa ATCC 27853; 4xMIC (32 μg/mL), 8.00 h): 0.00 log(CFU/mL) | log(CFU/mL) Mean (P. aeruginosa ATCC 27853; 4xMIC (32 μg/mL), 24.00 h): 0.00 log(CFU/mL) | log(CFU/mL) Mean (P. aeruginosa ATCC 27853; 8xMIC (64 μg/mL), 0.00 h): 5.52 log(CFU/mL) | log(CFU/mL) Mean (P. aeruginosa ATCC 27853; 8xMIC (64 μg/mL), 0.17 h): 4.14 log(CFU/mL) | log(CFU/mL) Mean (P. aeruginosa ATCC 27853; 8xMIC (64 μg/mL), 0.50 h): 1.43 log(CFU/mL) | log(CFU/mL) Mean (P. aeruginosa ATCC 27853; 8xMIC (64 μg/mL), 1.00 h): 0.00 log(CFU/mL) | log(CFU/mL) Mean (P. aeruginosa ATCC 27853; 8xMIC (64 μg/mL), 2.00 h): 0.00 log(CFU/mL) | log(CFU/mL) Mean (P. aeruginosa ATCC 27853; 8xMIC (64 μg/mL), 4.00 h): 0.00 log(CFU/mL) | log(CFU/mL) Mean (P. aeruginosa ATCC 27853; 8xMIC (64 μg/mL), 8.00 h): 0.00 log(CFU/mL) | log(CFU/mL) Mean (P. aeruginosa ATCC 27853; 8xMIC (64 μg/mL), 24.00 h): 0.00 log(CFU/mL) | log(CFU/mL) Mean (P. aeruginosa ATCC 27853; MIC (8 μg/mL), 0.00 h): 5.52 log(CFU/mL) | log(CFU/mL) Mean (P. aeruginosa ATCC 27853; MIC (8 μg/mL), 0.17 h): 4.81 log(CFU/mL) | log(CFU/mL) Mean (P. aeruginosa ATCC 27853; MIC (8 μg/mL), 0.50 h): 4.34 log(CFU/mL) | log(CFU/mL) Mean (P. aeruginosa ATCC 27853; MIC (8 μg/mL), 1.00 h): 3.67 log(CFU/mL) | log(CFU/mL) Mean (P. aeruginosa ATCC 27853; MIC (8 μg/mL), 2.00 h): 3.15 log(CFU/mL) | log(CFU/mL) Mean (P. aeruginosa ATCC 27853; MIC (8 μg/mL), 4.00 h): 2.63 log(CFU/mL) | log(CFU/mL) Mean (P. aeruginosa ATCC 27853; MIC (8 μg/mL), 8.00 h): 2.10 log(CFU/mL) | log(CFU/mL) Mean (P. aeruginosa ATCC 27853; MIC (8 μg/mL), 24.00 h): 5.08 log(CFU/mL) | bactericidal or bacteriostatic activity (P. aeruginosa ATCC 27853; [2]): bactericidal effect
